Source: US20060035884A1, “N-cyclic sulfonamido inhibitors of gamma secretase” (Elan Pharmaceuticals, Inc., priority 2004, published 2006)

test system: gamma secretase cleavage of NotchδE (constitutively active rat Notch1 construct ZEDN1); test: Notch signaling reporter gene assay (4xwtCBF1 Luciferase co-transfected with NotchδE) for selective inhibitors of gamma secretase; assay type: cell-based; settings: assay not given, it follows the Notch signaling assay section
Excerpt: Due to the importance of Notch signaling in cell fate determination, and tissue differentiation during both development and in the adult, inhibition of Notch signaling by gamma secretase inhibitors is postulated to be a limiting factor in their therapeutic utility. […] Lindsell, O. Bogler, D. Hayward and G. Weinmaster (1996). “Notch signaling inhibits muscle cell differentiation through a CBF1-independent pathway.” Development 122(12): 3765-73 in combination with the CBF1 repressible Luciferase reporter gene 4xwtCBF1Luc (Hsieh, J. J., T. Henkel, P. Salmon, E. Robey, M. G. Peterson and S. D. Hayward (1996). “Truncated mammalian Notch1 activates CBF1/RBPJk-repressed genes by a mechanism resembling that of Epstein-Barr virus EBNA2. ” Mol Cell Biol 16(3): 952-9).
When 4xwtCBF1 Luciferase is co-transfected with NotchδE (ZEDN1), gamma-secretase cleavage of NotchδE releases the Notch intracellular domain (NICD), which translocates to the nucleus and de-represses CBF1 mediated transcriptional repression, leading to transcription of the Luciferase reporter gene. Luciferase activity is easily assayed in cell extracts using commercially available kits. The activity of the reporter gene is directly correlated with gamma secretase cleavage of NotchδE, and as such, a reduction in Luciferase activity provides a convenient measure of inhibition of gamma secretase cleavage of NotchδE.

`O=S(=O)(c1ccc(Cl)cc1)N1CCCCC1c1cccnc1` (stereo not shown) [Compound 1, 1-(4-Chloro-benzenesulfonyl)-1,2,3,4,5,6-hexahydro-[2,3′]bipyridinyl] and `CC1CCCCN1S(=O)(=O)c1ccc(Cl)cc1` (stereo not shown) [Compound 48, 1-(4-Chloro-benzenesulfonyl)-2-methyl-piperidine] fall in the same range of IC50: 1 to 10 µM for the first, 1 to 10 µM for the second.

`O=C(Nc1ccccc1)C1Cc2ccccc2N1S(=O)(=O)c1ccc(Cl)cc1` (stereo not shown) [Compound 2, 1-(4-Chloro-benzenesulfonyl)-2,3-dihydro-1H-indole-2-carboxylic acid phenylamide] and `O=C(NCc1ccccc1)C1Cc2ccccc2N1S(=O)(=O)c1ccc(Cl)cc1` (stereo not shown) [Compound 12, 1-(4-Chloro-benzenesulfonyl)-2,3-dihydro-1H-indole-2-carboxylic acid benzylamide] fall in the same range of IC50: 1 to 10 µM for the first, 1 to 10 µM for the second.

First: O=S(=O)(c1ccc(Cl)cc1)N1CCCC2CCCCC21 (stereo not shown) [Compound 9, 1-(4-Chloro-benzenesulfonyl)-decahydro-quinoline]
Second: CCC1CCCCN1S(=O)(=O)c1ccc(Cl)cc1 (stereo not shown) [Compound 46, 1-(4-Chloro-benzenesulfonyl)-2-ethyl-piperidine]
The IC50 of the first is higher: 1 to 10 µM for the first, 0.1 to 1 µM for the second. The second is the more potent here.

`CC1CCc2cc(F)ccc2N1S(=O)(=O)c1ccc(Cl)cc1` (stereo not shown) [Compound 13, 1-(4-Chloro-benzenesulfonyl)-6-fluoro-2-methyl-1,2,3,4-tetrahydro-quinoline] and `CC1CCC(C)N1S(=O)(=O)c1ccc(Cl)cc1` (stereo not shown) [Compound 124, 1-(4-Chloro-benzenesulfonyl)-2,5-dimethyl-pyrrolidine] fall in the same range of IC50: 1 to 10 µM for the first, 1 to 10 µM for the second.

`O=S(=O)(c1ccc(Cl)cc1)N1CCCCCC1` [Compound 43, 1-(4-Chloro-benzenesulfonyl)-azepane] and `CC1CCCN(S(=O)(=O)c2ccc(Cl)cc2)C1` (stereo not shown) [Compound 54, 1-(4-Chloro-benzenesulfonyl)-3-methyl-piperidine] fall in the same range of IC50: 1 to 10 µM for the first, 1 to 10 µM for the second.

`C[C@@H]1CCC[C@H](C)N1S(=O)(=O)c1ccc(Cl)cc1` [Compound 45, (2R,6S)-1-[(4-chlorophenyl)sulfonyl]-2,6-dimethylpiperidine] and `CC1CCCC(C)N1S(=O)(=O)c1ccc(Cl)cc1` (stereo not shown) [Compound 47, 1-(4-Chloro-benzenesulfonyl)-2,6-dimethyl-piperidine] fall in the same range of IC50: 0.1 to 1 µM for the first, 0.1 to 1 µM for the second.

`CC1CC(C)CN(S(=O)(=O)c2ccc(Cl)cc2)C1` (stereo not shown) [Compound 51, 1-(4-Chloro-benzenesulfonyl)-3,5-dimethyl-piperidine] and `CC1C=CC(C)N1S(=O)(=O)c1ccc(Cl)cc1` (stereo not shown) [Compound 149, 1-(4-Chloro-benzenesulfonyl)-2,5-dimethyl-2,5-dihydro-1H-pyrrole] fall in the same range of IC50: 1 to 10 µM for the first, 1 to 10 µM for the second.

`O=S(=O)(c1ccc(Cl)cc1)N1CCC(Br)CC1` [Compound 56, 4-Bromo-1-(4-chloro-benzenesulfonyl)-piperidine] and `CCOC(=O)C1CCCN(S(=O)(=O)c2ccc(Cl)cc2)C1` (stereo not shown) [Compound 65, 1-(4-Chloro-benzenesulfonyl)-piperidine-3-carboxylic acid ethyl ester] cannot be ordered by IC50: over 10 µM for the first, over 10 µM for the second.

`CC1(c2ccccc2)CCCN(S(=O)(=O)c2ccc(Cl)cc2)C1` (stereo not shown) [Compound 74, 1-(4-Chloro-benzenesulfonyl)-3-methyl-3-phenyl-piperidine] and `O=S(=O)(c1ccc(Cl)cc1)N1CCCN2CCCN=C21` [Compound 138, 1-(4-Chloro-benzenesulfonyl)-1,3,4,6,7,8-hexahydro-2H-pyrimido[1,2-a]pyrimidine] cannot be ordered by IC50: over 10 µM for the first, over 10 µM for the second.

In the case of `CCCCNC(=O)[C@H]1CSC(c2ccc(OC)c(OC)c2)N1S(=O)(=O)c1ccc(Cl)cc1` (stereo partly drawn) [Compound 139, (4S)-N-butyl-3-[(4-chlorophenyl)sulfonyl]-2-(3,4-dimethoxyphenyl)-1,3-thiazolidine-4-carboxamide], the IC50 is reported as over 10 µM.
